Measurements as given in patent publication US7335665B2, “Spirocyclic piperidines as MCH1 antagonists and uses thereof” (H - Lundbeck A/S, priority 2003, dated 2008).
pKd, pKi: −log10 of the molar value.

Assays:
rat MCH1 receptor = biological target: T1, rat MCH1 receptor (Rattus norvegicus, UniProt P97639); experiment: Radioligand binding assay at cloned rat MCH1 receptor ([3H]Compound A displacement); conditions: cloned rat MCH1, membranes of transfected Peakr293 cells, 0.08 nM [3H]Compound A, 25° C., 90 minutes; read-out: KI
T1 construct: expressed in transfected cells; host or cells: Human embryonic kidney Peak rapid 293 cells (Peakr293), transient, calcium phosphate; membranes
T1 sequence (P97639 whole entry): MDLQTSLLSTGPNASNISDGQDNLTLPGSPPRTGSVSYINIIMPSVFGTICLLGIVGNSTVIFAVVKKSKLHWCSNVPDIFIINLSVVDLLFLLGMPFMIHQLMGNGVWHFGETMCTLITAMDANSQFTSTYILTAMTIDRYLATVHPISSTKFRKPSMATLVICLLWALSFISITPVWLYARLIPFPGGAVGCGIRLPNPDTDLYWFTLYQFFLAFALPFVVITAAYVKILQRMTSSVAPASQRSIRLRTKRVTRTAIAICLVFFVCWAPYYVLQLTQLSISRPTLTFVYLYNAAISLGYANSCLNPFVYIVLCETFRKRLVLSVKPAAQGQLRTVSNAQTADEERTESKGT
Outline: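 Membranes from Peakr293 cells transiently transfected with rat MCH1 receptor were incubated with 0.08 nM [3H]Compound A in 50 mM Tris pH 7.4, 10 mM MgCl2, PMSF, 1,10-phenanthroline and 0.2% BSA, 90 min at 25° C. Bound ligand was collected by filtration; nonspecific binding was defined with […] Compound A.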

MCH-1 receptor [1] = conditions: rat and human MCH-1; cited from earlier work
MCH-1 receptor [2] = biological target: T2, MCH-1 receptor (Rattus norvegicus, UniProt P97639); conditions: in vivo; cited from earlier work
T2 construct: host or cells: in vivo, endogenous receptor of the animal
T2 sequence (P97639 whole entry): as above

G4F-7 cells = conditions: cited from earlier work

## CC(C)c1ccc2c(c1)COC21CCN(CCCNC(=O)C(c2ccccc2)c2ccccc2)CC1 [Example 102, N-{3-[5-(METHYLETHYL)SPIRO[1,3-DIHYDROISOBENZOFURAN-1,4′-PIPERIDINE]-10-YL]PROPYL}-2,2-DIPHENYLACETAMIDE]
Rat MCH1 receptor
  pKi: 6.79

## Cc1ccc2c(c1)COC21CCN(CCCNC(=O)C(c2ccccc2)c2ccccc2)CC1 [Example 103, N-[3-(5-METHYLSPIRO[1,3-DIHYDROISOBENZOFURAN-1,4′-PIPERIDINE]-10-YL)PROPYL]-2,2-DIPHENYLACETAMIDE]
Rat MCH1 receptor
  pKi: 7.83

## CN(C)CC1CCc2cc(NC(=O)c3ccc(-c4ccc(F)cc4)cc3)ccc2C1 (stereo not drawn) [Example T-226296]
MCH-1 receptor [1]
  affinity for the MCH-1 receptor: 5 to 9 nM
MCH-1 receptor [2]
  food intake induced by the intracerebroventricular application of MCH: inhibit food intake

## [Phe^13,Tyr^19]-MCH
G4F-7 cells; radioiodinated ligand, G4F-7 mouse melanoma cells
  pKd: 9.93

## native MCH: Melanin-concentrating hormone, cyclic peptide
G4F-7 cells; inhibition of radioiodinated [Phe13,Tyr19]-MCH binding
  pKi: 7.92
